Source: patent publication US20260374773A1, “MULTI-CYCLIC IRAK AND FLT3 INHIBITING COMPOUNDS AND USES THEREOF” (CHILDREN'S HOSPITAL MEDICAL CENTER, priority 2022, published 2026)

Test system: MOLM14 (D835Y) cells
Test: Combination drug screening with venetoclax, Cell Titer Glo, MOLM14 (D835Y)
Type: cell-based
Set-up: key: relative excess HSA score; more negative = greater synergy
Details: compound 0-0.1 μM, venetoclax 0-2 μM, 10 × 10, 48 h, negative = synergy
Procedure: Combination drug therapy has the potential to produce enhanced effects with lower side effects not obtained using either agent alone, or beyond the additive effect of the different concentrations of the two different agents. To determine whether enhanced effects are observed in different drug combinations, combination drug screening was performed as previously described (Mathews-Griner, L. A. et al., Proc. Nat. Acad. Sci., 2014, 111:2349-2354; Lin, G. L. et al., Sci. Trans. Med., 2019, 11: eaaw0064). Briefly, 10 nL of compounds were acoustically dispensed into 1536-well white polystyrene tissue culture-treated plates with an Echo 550 acoustic liquid handler (Labcyte). Cells were then added to compound-containing plates at a density of 500-cells/well in 5 μL of medium. A 10-point custom concentration range was used for all listed drugs in a 10×10 matrix. Plates were incubated for 48 hours at standard incubator conditions covered by a stainless steel gasketed lid to prevent evaporation. 48 hours post compound addition, 3 μL of Cell Titer Glo (Promega) were added to each well and plates were incubated at room temperature for 15 minutes with the stainless-steel lid in place. Luminescence readings were taken using a Viewlux imager (PerkinElmer) with a 2 second exposure time per plate.
Each compound was studied in combination with venetoclax at two concentration ranges of compound and venetoclax, respectively (for a total of 4 combination dose-response curves). The dose combinations that yielded the optimal synergy score, measured as excess HSA, which are reported in Tables 23 and 24 for the FLT3 mutant cell line MOLM14 (D835Y) and the FLT3 WT cell line THP1, respectively.
Table 23 provides combination outcomes for representative compounds with venetoclax in the Cell Titer Glo assay in MOLM14 (D835Y) cells (a FLT3 mutant cell line) at 48 hours. The table provides relative excess HSA values for compounds of the disclosure used in combination with venetoclax compared to gilteritinib hemifumarate used in combination with venetoclax. A negative excess HSA score illustrates that the drug combination is better than either drug alone, wherein greater synergy is observed at larger negative values of the excess HSA score.
Excess HSA is a measure of synergy vs. additivity or antagonism, wherein a negative excess HSA value is indicative of synergy. More information on excess HSA scores can be found in Vlot, Anna H. C. et al., Drug Discovery Today, 2019, 24(12):2286-2298. […] However, different methodologies may yield different numerical scores, and different definitions of what constitutes a deviation from mere additivity vs true drug synergy. The large negative excess HSA values provided in Tables 23 and 24 illustrate that multiple members of this structural class synergize with venetoclax. The degree to which combination therapy has to potential to produce enhanced effects with lower side effects not obtained using either agent alone, or beyond the additive effect of the different concentrations of the two different agents depends on the nature of the drugs used in the combination, and the specific doses/concentrations at which they are ultimately used in the therapeutic regimen. A negative excess HSA score illustrates that the drug combination is better than either drug alone (at the concentrations being studied). […] However, the utility in certain drug combinations vs. others should not be distinguished based on cutoffs between excess HSA scores, because the score itself is only a relative indicator that is completely dependent on experimental design and is not an absolute number. Furthermore, the concept of what constitutes clinically meaningful drug synergy is something that is still being debated, not only between pharmacologists and physicians, but amongst pharmacologists themselves. […]

In the case of COc1cn2ncc(-c3nc(N[C@H]4CNC[C@@H]4F)c(F)cc3F)c2nc1C1CC1 [Compound 24, 6-(5-cyclopropyl-6-methoxypyrazolo[1,5-a]pyrimidin-3-yl)-3,5-difluoro-N-((3S,4S)-4-fluoropyrrolidin-3-yl)pyridin-2-amine], the “Excess HSA” value was −1472.

Same assay, conditions: compound 0-0.1 μM, venetoclax 0-20 μM, 10 × 10, 48 h, negative = synergy

Compared with COc1cn2ncc(-c3nc(N[C@@H]4CCCNC4)ccc3F)c2nc1C1CC1 [Compound 2, (R)-6-(5-cyclopropyl-6-methoxypyrazolo[1,5-a]pyrimidin-3-yl)-5-fluoro-N-(piperidin-3-yl)pyridin-2-amine], COc1cn2ncc(-c3nc(N[C@@H]4CCCNC4)ncc3F)c2nc1C1CC1 [Compound 14a, (R)-4-(5-cyclopropyl-6-methoxypyrazolo[1,5-a]pyrimidin-3-yl)-5-fluoro-N-(piperidin-3-yl)pyrimidin-2-amine] is higher in “Excess HSA” value: −1843 for the first, −559.2 for the second.

First: COc1cn2ncc(-c3nc(N[C@H]4CNCC[C@@H]4F)ncc3F)c2nc1C(C)(C)O [Compound 6a, 2-(3-(5-fluoro-2-(((3S,4S)-4-fluoropiperidin-3-yl)amino)pyrimidin-4-yl)-6-methoxypyrazolo[1,5-a]pyrimidin-5-yl)propan-2-ol]
Second: COc1cn2ncc(-c3nc(N[C@H]4CNCC[C@@H]4F)ncc3F)c2nc1C1CC1 [Compound 15a, 4-(5-cyclopropyl-6-methoxypyrazolo[1,5-a]pyrimidin-3-yl)-5-fluoro-N-((3S,4S)-4-fluoropiperidin-3-yl)pyrimidin-2-amine]
The “Excess HSA” value of the first is lower: −1057 for the first, −831 for the second.

Compared with COc1cn2ncc(-c3ccnc(N[C@H]4CNCC[C@@H]4F)n3)c2nc1C1CC1 [Compound 7a, 4-(5-cyclopropyl-6-methoxypyrazolo[1,5-a]pyrimidin-3-yl)-N-((3S,4S)-4-fluoropiperidin-3-yl)pyrimidin-2-amine], COc1cn2ncc(-c3cncc(N[C@H]4CNCC[C@@H]4F)n3)c2nc1C1CC1 [Compound 12a, 6-(5-cyclopropyl-6-methoxypyrazolo[1,5-a]pyrimidin-3-yl)-N-((3S,4S)-4-fluoropiperidin-3-yl)pyrazin-2-amine] is lower in “Excess HSA” value: −1364 for the first, −1697 for the second.

For COc1cn2ncc(-c3nc(N[C@H]4CNCC[C@@H]4F)c(F)cc3F)c2nc1C1CC1 [Compound 22, 6-(5-cyclopropyl-6-methoxypyrazolo[1,5-a]pyrimidin-3-yl)-3,5-difluoro-N-((3S,4S)-4-fluoropiperidin-3-yl)pyridin-2-amine], the “Excess HSA” value was −992.2.

Same assay, conditions: compound 0-0.2 μM, venetoclax 0-20 μM, 10 × 10, 48 h, negative = synergy

For COc1cn2ncc(-c3ccnc(N[C@H]4CNCC[C@@H]4F)n3)c2nc1C(C)(C)O [Compound 3a, 2-(3-(2-(((3S,4S)-4-fluoropiperidin-3-yl)amino)pyrimidin-4-yl)-6-methoxypyrazolo[1,5-a]pyrimidin-5-yl)propan-2-ol], the “Excess HSA” value was −1621.
